#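 Abbreviation: GI50, concentration required for 50% inhibition of growth. The concentration for full growth arrest is given as TGI.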
# What was measured:
# Assay in all cases: DTP human tumour cell line panel, 384-well format
# SK-MEL-5 melanoma = tested on: SK-MEL-5 melanoma
# U251 glioblastoma = tested on: U251 glioblastoma
# NCI-H460 NSCLC = tested on: NCI-H460 NSCLC
# SF-539 CNS = tested on: SF-539 CNS
# HCT-15 colon = tested on: HCT-15 colon
# SN12C renal = tested on: SN12C renal
# MCF7 breast = tested on: MCF7 breast
# NCI-H226 lung = tested on: NCI-H226 lung
# NCI-H322M lung = tested on: NCI-H322M lung
# TK-10 renal = tested on: TK-10 renal
# SW-620 colon = tested on: SW-620 colon
# KM12 colon = tested on: KM12 colon
# SR leukemia = tested on: SR leukemia
# ACHN renal = tested on: ACHN renal
# RXF 393 renal = tested on: RXF 393 renal
# PC-3 prostate = tested on: PC-3 prostate
# HOP-62 NSCLC = tested on: HOP-62 NSCLC
# SK-MEL-2 melanoma = tested on: SK-MEL-2 melanoma
# SK-OV-3 ovarian = tested on: SK-OV-3 ovarian
# SNB-19 CNS = tested on: SNB-19 CNS
# HCC-2998 colon = tested on: HCC-2998 colon
# HL-60(TB) leukemia = tested on: HL-60(TB) leukemia
# UO-31 renal = tested on: UO-31 renal
# SNB-75 CNS = tested on: SNB-75 CNS
# OVCAR-3 ovarian = tested on: OVCAR-3 ovarian
# MDA-MB-468 breast = tested on: MDA-MB-468 breast
# RPMI-8226 leukemia = tested on: RPMI-8226 leukemia
# BT-549 breast = tested on: BT-549 breast
# NCI-H522 lung = tested on: NCI-H522 lung
# 786-0 renal = tested on: 786-0 renal
# OVCAR-4 ovarian = tested on: OVCAR-4 ovarian
# HCT-116 colon = tested on: HCT-116 colon
# A549 NSCLC = tested on: A549 NSCLC
# OVCAR-5 ovarian = tested on: OVCAR-5 ovarian
# A498 renal = tested on: A498 renal
# HOP-92 NSCLC = tested on: HOP-92 NSCLC
# HT29 colon = tested on: HT29 colon
# OVCAR-8 ovarian = tested on: OVCAR-8 ovarian
# UACC-257 melanoma = tested on: UACC-257 melanoma
# DU-145 prostate = tested on: DU-145 prostate
# NCI-H23 lung = tested on: NCI-H23 lung
# IGROV1 ovarian = tested on: IGROV1 ovarian
# SF-295 CNS = tested on: SF-295 CNS
# HS 578T breast = tested on: HS 578T breast
# CCRF-CEM leukemia = tested on: CCRF-CEM leukemia
# MOLT-4 leukemia = tested on: MOLT-4 leukemia
# CAKI-1 renal = tested on: CAKI-1 renal
# SF-268 CNS = tested on: SF-268 CNS
# T-47D breast = tested on: T-47D breast
# NCI/ADR-RES ovarian = tested on: NCI/ADR-RES ovarian
# MDA-MB-435 melanoma = tested on: MDA-MB-435 melanoma
# EKVX NSCLC = tested on: EKVX NSCLC
# K-562 leukemia = tested on: K-562 leukemia
smiles,measurement,setting,value
COC(=O)N1c2ccc3c(nc(Cc4ccccc4)n3[C@H]3CCC[C@H](C(=O)O)C3)c2CC[C@@H]1C,GI50,SK-MEL-5 melanoma,2.54 µM
same,TGI,SK-MEL-5 melanoma,15.6 µM
same,GI50,U251 glioblastoma,25 µM
same,TGI,U251 glioblastoma,> 100 µM
same,GI50,NCI-H460 NSCLC,31.5 µM
same,TGI,NCI-H460 NSCLC,> 100 µM
same,GI50,SF-539 CNS,20.4 µM
same,TGI,SF-539 CNS,> 100 µM
same,GI50,HCT-15 colon,14.1 µM
same,TGI,HCT-15 colon,> 100 µM
same,GI50,SN12C renal,11.5 µM
same,TGI,SN12C renal,> 100 µM
same,GI50,MCF7 breast,0.692 µM
same,TGI,MCF7 breast,33.4 µM
same,GI50,NCI-H226 lung,2.08 µM
same,TGI,NCI-H226 lung,40.2 µM
same,GI50,NCI-H322M lung,11.1 µM
same,TGI,NCI-H322M lung,89.7 µM
same,GI50,TK-10 renal,2.16 µM
same,TGI,TK-10 renal,37.4 µM
same,GI50,SW-620 colon,> 100 µM
same,TGI,SW-620 colon,> 100 µM
same,GI50,KM12 colon,14.7 µM
same,TGI,KM12 colon,> 100 µM
same,GI50,SR leukemia,1.49 µM
same,TGI,SR leukemia,18.3 µM
same,GI50,ACHN renal,14.5 µM
same,TGI,ACHN renal,> 100 µM
same,GI50,RXF 393 renal,4.47 µM
same,TGI,RXF 393 renal,29.5 µM
same,GI50,PC-3 prostate,4.78 µM
same,TGI,PC-3 prostate,> 100 µM
same,GI50,HOP-62 NSCLC,8.43 µM
same,TGI,HOP-62 NSCLC,> 100 µM
same,GI50,SK-MEL-2 melanoma,14.7 µM
same,TGI,SK-MEL-2 melanoma,> 100 µM
same,GI50,SK-OV-3 ovarian,18.9 µM
same,TGI,SK-OV-3 ovarian,> 100 µM
same,GI50,SNB-19 CNS,9.78 µM
same,TGI,SNB-19 CNS,> 100 µM
same,GI50,HCC-2998 colon,2.05 µM
same,TGI,HCC-2998 colon,11.8 µM
same,GI50,HL-60(TB) leukemia,0.0322 µM
same,TGI,HL-60(TB) leukemia,1.51 µM
same,GI50,UO-31 renal,7.99 µM
same,TGI,UO-31 renal,> 100 µM
same,GI50,SNB-75 CNS,> 100 µM
same,TGI,SNB-75 CNS,> 100 µM
same,GI50,OVCAR-3 ovarian,5.8 µM
same,TGI,OVCAR-3 ovarian,75 µM
same,GI50,MDA-MB-468 breast,8.31 µM
same,TGI,MDA-MB-468 breast,61.2 µM
same,GI50,RPMI-8226 leukemia,0.133 µM
same,TGI,RPMI-8226 leukemia,0.314 µM
same,GI50,BT-549 breast,2.67 µM
same,TGI,BT-549 breast,37.6 µM
same,GI50,NCI-H522 lung,1.6 µM
same,TGI,NCI-H522 lung,18.7 µM
same,GI50,786-0 renal,6.57 µM
same,TGI,786-0 renal,> 100 µM
same,GI50,OVCAR-4 ovarian,5.43 µM
same,TGI,OVCAR-4 ovarian,31 µM
same,GI50,HCT-116 colon,13.9 µM
same,TGI,HCT-116 colon,> 100 µM
same,GI50,A549 NSCLC,26.6 µM
same,TGI,A549 NSCLC,> 100 µM
same,GI50,OVCAR-5 ovarian,12.5 µM
same,TGI,OVCAR-5 ovarian,84.7 µM
same,GI50,A498 renal,24.9 µM
same,TGI,A498 renal,> 100 µM
same,GI50,HOP-92 NSCLC,3.5 µM
same,TGI,HOP-92 NSCLC,81.9 µM
same,GI50,HT29 colon,6.35 µM
same,TGI,HT29 colon,> 100 µM
same,GI50,OVCAR-8 ovarian,6.82 µM
same,TGI,OVCAR-8 ovarian,54.4 µM
same,GI50,UACC-257 melanoma,5.22 µM
same,TGI,UACC-257 melanoma,82 µM
same,GI50,DU-145 prostate,26.8 µM
same,TGI,DU-145 prostate,> 100 µM
same,GI50,NCI-H23 lung,20 µM
same,TGI,NCI-H23 lung,> 100 µM
same,GI50,IGROV1 ovarian,7.99 µM
same,TGI,IGROV1 ovarian,77.4 µM
same,GI50,SF-295 CNS,22 µM
same,TGI,SF-295 CNS,> 100 µM
same,GI50,HS 578T breast,1.67 µM
same,TGI,HS 578T breast,33.7 µM
same,GI50,CCRF-CEM leukemia,1.83 µM
same,TGI,CCRF-CEM leukemia,19.2 µM
same,GI50,MOLT-4 leukemia,1.94 µM
same,TGI,MOLT-4 leukemia,16.5 µM
same,GI50,CAKI-1 renal,1.48 µM
same,TGI,CAKI-1 renal,> 100 µM
same,GI50,SF-268 CNS,24.2 µM
same,TGI,SF-268 CNS,> 100 µM
same,GI50,T-47D breast,10 µM
same,TGI,T-47D breast,> 100 µM
same,GI50,NCI/ADR-RES ovarian,82.9 µM
same,TGI,NCI/ADR-RES ovarian,> 100 µM
same,GI50,MDA-MB-435 melanoma,14.5 µM
same,TGI,MDA-MB-435 melanoma,> 100 µM
same,GI50,EKVX NSCLC,47 µM
same,TGI,EKVX NSCLC,> 100 µM
same,GI50,K-562 leukemia,3.06 µM
same,TGI,K-562 leukemia,> 100 µM
